≈ marks a conversion by molar mass, not a printed value. Starred links: 1 amine or outer side, 2 acyl side, 3 side chain; linkers in the order of their positions; H or OH if unused. Positions of bridges follow the written chain, without caps; N, C: chain ends. Non-standard residues stand in square brackets, D forms with d. Residues, ends and D or L forms follow the SMILES beside them. *: point of attachment. pTerphenylCO(4''-OnC5H11) = CCCCCOc1ccc(-c2ccc(-c3ccc(C(=O)*)cc3)cc2)cc1; Orn(4R-OH,5R-OH) = O=C([C@H](C[C@@H](O)[C@@H](O)N[*:3])N[*:1])[*:2]; hTyr(3S-OH,4S-OH) = N[C@H](C(=O)O)[C@H](O)[C@@H](O)c1ccc(O)cc1; Pro(3S-OH,4S-Me) = C[C@H]1CN[C@H](C(=O)O)[C@H]1O; Hyp = O=C(O)[C@@H]1C[C@@H](O)CN1

Assay in the first series: not given
As to conditions: in vivo; cited from earlier work.
As to `C[C@@H]1[C@H](O)[C@@H](C)/C=C/C=C/C=C/C=C/C=C/C=C/C=C/[C@H](O[C@@H]2O[C@H](C)[C@@H](O)[C@H](N)[C@@H]2O)C[C@@H]2O[C@](O)(C[C@@H](O)C[C@@H](O)[C@H](O)CC[C@@H](O)C[C@@H](O)CC(=O)O[C@H]1C)C[C@H](O)[C@H]2C(=O)O` [amphotericin], the half-life result is “greater than 48 hours”.
On to `CCCCCOc1ccc(-c2ccc(-c3ccc(C(=O)N[C@H]4C[C@@H](O)[C@@H](O)NC(=O)[C@@H]5[C@@H](O)[C@@H](C)CN5C(=O)[C@H]([C@@H](C)O)NC(=O)[C@H]([C@H](O)[C@@H](O)c5ccc(O)cc5)NC(=O)[C@@H]5C[C@@H](O)CN5C(=O)[C@H]([C@@H](C)O)NC4=O)cc3)cc2)cc1` [anidulafungin] ({pTerphenylCO(4''-OnC5H11)}-[Orn(4R-OH,5R-OH)]T[Hyp][hTyr(3S-OH,4S-OH)]T[Pro(3S-OH,4S-Me)]; lactam 1-C), for which the half-life entry is on record as “greater than 48 hours”.
For `NC(=O)N1c2ccccc2C=Cc2ccccc21` [carbamazepine], the half-life result was “greater than 48 hours”.
As to `O=C1CN=C(c2ccccc2Cl)c2cc([N+](=O)[O-])ccc2N1` [clonazepam], the half-life result was “greater than 48 hours”.
On to `CCCCCCCCc1ccc(CCC(N)(CO)CO)cc1` [fingolimod], for which the half-life entry is reported as “greater than 48 hours”.
As to `CCC1(c2ccccc2)C(=O)NC(=O)N(C)C1=O` (stereo not shown) [mephobarbital], the half-life entry is reported as “greater than 48 hours”.
As to `CNCCC=C1c2ccccc2CCc2ccccc21` [nortriptyline], the half-life result is recorded as “greater than 48 hours”.
For the molecule `Cc1cc2c(s1)Nc1ccccc1N=C2N1CCN(C)CC1` [olanzapine], the half-life result is on record as “greater than 48 hours”.
Turning to `CCC1(c2ccccc2)C(=O)NC(=O)NC1=O` [phenobarbital], the half-life entry is listed as “greater than 48 hours”.
Turning to `CO[C@H]1C[C@@H]2CC[C@@H](C)[C@@](O)(O2)C(=O)C(=O)N2CCCC[C@H]2C(=O)O[C@H]([C@H](C)C[C@@H]2CC[C@@H](O)[C@H](OC)C2)CC(=O)[C@H](C)/C=C(\C)[C@@H](O)[C@@H](OC)C(=O)[C@H](C)C[C@H](C)/C=C/C=C/C=C/1C` [sirolimus], the half-life entry is given as “greater than 48 hours”.

Assay in a further series: not given
As to conditions: cited from earlier work.
On to `C[C@]12CC3C[C@](C)(C1)C[C@@](N)(C3)C2` [free base of memantine, 3,5-dimethyladamantan-1-amine], for which the water solubility is 900 µg/mL (≈ 5.02 mM).

Another series can be described thus: Gastrointestinal related adverse events in clinical study. As to conditions: 10 mg/day donepezil administered transdermally versus orally.
Procedure: The number of subjects with treatment related adverse events is assessed daily during the 36 day confinement period and for 7 visits over a 21 day wash-out period. Assessment of local skin irritation in the subjects of Arm 1 will also be assessed daily during the 36 day confinement period and for 7 visits over a 21 day wash-out period. Skin irritation is assessed using an 8 point categorical scale of no irritation; minimal erythema, barely perceptible; definite erythema readily visible; minimal edema or minimal popular response; erythema and papules; definite edema; erythema, edema and papules; vesicular eruption; strong reaction, spreading beyond application site.
For the molecule `COc1cc2c(cc1OC)C(=O)C(CC1CCN(Cc3ccccc3)CC1)C2` (stereo not shown) [donepezil], the “number of subjects experiencing diarrhea, transdermally versus orally” value is reported as “two-fold lower” and the “number of subjects experiencing nausea, transdermally versus orally” value was “four-fold lower”.
